Series [1] concerns organotypic cultures of rat hippocampus. Nature of the series: LPC-induced demyelination in hippocampal organotypic slice culture (MBP immunofluorescence). The series is classed as cell-based, Wistar rats. Particulars: 10 μm drug, 24 h post-LPC treatment (250 μg/ml LPC for 18 hours); compared to control. The protocol: Slices were maintained in normal organotypic medium for 10 days, at which point demyelination was induced by exposing the cultures to 250 μg/ml lysophosphatidylcholine (LPC) in the medium for 18 hours. After the LPC exposure, slices were returned to LPC free medium containing either 10 μm nefiracetam, 10 μm piracetam, 10 μm levetiracetam, 10 μm aniracetam, or no drug. […] Protoc. […] Labelled MBP in the cultures was imaged by confocal microscopy, and the degree of myelination was compared to time matched cultures that had not undergone LPC exposure.

For series [2], the system named is Lewis rats susceptible to develop experimental autoimmune encephalomyelitis (EAE). The series can be described thus: EAE animal model of multiple Sclerosis (clinical score). Particulars: versus saline-treated controls, n=5. The series is classed as in vivo.
Series [3] relates to C57BL/6 mice on cuprizone diet. The series can be described thus: Cuprizone animal model of demyelination (luxol fast blue myelin staining, corpus callosum). The class given is in vivo. The following applies: 30 mg/kg/day i.p. from 5 days before return to normal diet; 1 day time-point after 6 weeks cuprizone (0.2% wt/wt) diet. The protocol:
Demyelination was induced by feeding 12-14 week old C57B1/6 mice a diet containing 0.2% cuprizone (bis-cyclohexanone oxaldihydrazone) mixed into food pellets. This diet was maintained ad libitum for 6 weeks before returning animals to normal chow (T=0) in order to study remyelination. Control animals received control chow throughout the study. Commencing from 5 days before the return to control chow (T=−5 days), animals received daily intra-peritoneal injections of 30 mg/kg nefiracetam or vehicle only until the end of the study. At different time points, (T=1 day, T=3 days, T=7 days) animals were sacrificed, brains were snap frozen in Optimal Cutting Temperature (OTC) Compound and stored. Coronal frozen sections, 20 μm thick, were cut using a cryostat at approximately −1.8 mm from bregma. Sections were fixed in 70% ethanol, defatted in 50% chloroform/50% ethanol, rehydrated, and then myelin was stained with luxol fast blue. The degree of myelination in the corpus callosum was assessed based on the intensity of the luxol fast blue staining

For series [4] the following is noted: clinical studies, oral administration; cited from earlier work.

For `NC(=O)CN1CCCC1=O` [piracetam], the “MBP expression (percent of field of view positive for MBP)” value in series [1] is listed as “restored MBP expression to control levels or above”.
In the case of `Cc1cccc(C)c1NC(=O)CN1CCCC1=O` [Nefiracetam, N-(2,6-dimethylphenyl)-2-(2-oxo-1-pyrrolidinyl)acetamide], the “MBP expression (percent of field of view positive for MBP)” value in series [1] is given as “restored MBP expression to control levels or above”. Also, the “clinical score (magnitude and timing of clinical symptoms)” value in series [2] (increasing doses (9, 15 and 30 mg/kg) i.p. daily from onset of clinical symptoms) is on record as “No significant differences were seen”; in series [2] (treated from day of inoculation with MBP), “No significant difference was seen”. Besides, in series [3], the “myelin levels (myelin density) in the corpus callosum” value is reported as “completely restored myelin levels to normal”. Besides, the tolerability in humans result in series [4] is recorded as “well tolerated”.
Turning to `COc1ccc(C(=O)N2CCCC2=O)cc1` [aniracetam], the “MBP expression (percent of field of view positive for MBP)” value in series [1] is recorded as “restored MBP expression to control levels or above”.
On the same count and under the same terms, with `CC[C@H](C(N)=O)N1CCCC1=O` [levetiracetam] the entry was “restored MBP expression to control levels or above”.

The record behind these values is patent US20120269762A1, “CAUSAL THERAPY OF DISEASES OR CONDITIONS ASSOCIATED WITH CNS OR PNS DEMYELINATION” (UNIVERSITY COLLEGE DUBLIN, NATIONAL UNIVERSITY OF IRELAND, …, priority 2009, published 2012).
